Key:
[1] = test system: SARS-CoV-2 Omicron B.1.1.529 variant; conditions: Vero E6
[2] = test system: SARS-CoV-2 Omicron B.1.1.529 variant; test: microbe, parasite or virus in culture; conditions: Severe acute respiratory syndrome coronavirus 2, Vero C1008, 96 h

| SMILES | SI (CC50/EC50) [1] | EC50 [2] [µM] | EC90 [2] [µM] |
| --- | --- | --- | --- |
| CC(C)C(=O)OC[C@H]1O[C@@H](n2ccc(NO)nc2=O)[C@H](O)[C@@H]1O [Molnupiravir] | >6.65 | 15.1 | 23.4 |
| CC(=O)ONc1ccn([C@@H]2O[C@H](CO)[C@@H](O)[C@H]2O)c(=O)n1 [EX-2] | 11.38 | 1.6 | 2.48 |

Reference: US20250034196A1, “ESTER DERIVATIVES OF N4-HYDROXYCYTIDINE AND USE THEREOF” (priority 2021, published 2025)
